Assay results reported in PMC10491774 (Cell Death & Disease, 2023).

Molecular target: 6-phosphofructo-2-kinase/fructose-2,6-bisphosphatase 3 (PFKFB3) (Homo sapiens, UniProt Q16875)
Assay: ADP-Glo kinase assay with purified recombinant human PFKFB3; partial inhibition, only by the Ca2+-free form; counter assay done
Assay type: biochemical

6-phosphofructo-2-kinase/fructose-2,6-bisphosphatase 3 (PFKFB3), sequence (Q16875 whole entry): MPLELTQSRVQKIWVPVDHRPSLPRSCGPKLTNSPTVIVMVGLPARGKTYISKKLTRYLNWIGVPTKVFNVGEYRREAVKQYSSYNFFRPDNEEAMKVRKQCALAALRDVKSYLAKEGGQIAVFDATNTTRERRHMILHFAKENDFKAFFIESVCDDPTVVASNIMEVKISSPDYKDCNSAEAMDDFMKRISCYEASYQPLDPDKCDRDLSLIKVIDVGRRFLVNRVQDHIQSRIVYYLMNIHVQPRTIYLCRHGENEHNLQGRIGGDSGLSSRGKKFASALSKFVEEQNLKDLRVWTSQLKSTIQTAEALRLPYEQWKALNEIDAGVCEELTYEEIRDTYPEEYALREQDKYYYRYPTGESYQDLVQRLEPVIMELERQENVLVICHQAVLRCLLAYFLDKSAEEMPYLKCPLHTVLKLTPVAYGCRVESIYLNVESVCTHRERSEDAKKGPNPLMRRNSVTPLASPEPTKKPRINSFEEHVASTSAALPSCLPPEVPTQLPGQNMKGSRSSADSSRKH

IC50: 110 µM
SMILES: O=C(O)CN(CC(=O)O)c1ccccc1OCCOc1ccccc1N(CC(=O)O)CC(=O)O [BAPTA, 1,2-Bis-(o-Aminophenoxy)-ethane-N,N,N’,N’-tetraacetic acid]
